# In ChEMBL document CHEMBL5316312, “Novel Diarylthioether Compounds as Agents for the Treatment of Chagas Disease” (J Med Chem, 2023):
# Activity calls are given as the source filed them. The rule behind the calls is not given here.
# Key:
# [1] = Cytotoxicity against rat H9c2 cells assessed as reduction in cell viability measured for 72 hrs; format: toxicity, cell-based
# [2] = tested on: Trypanosoma cruzi; assay: Antitrypanosomal activity against Trypanosoma cruzi Tulahuen trypomastigotes assessed as reduction in parasite growth incubated for 4 hrs by cell counter analysis; format: functional, organism-based
# [3] = Microsomal stability in CD-1 mouse liver microsome measured assessed as intrinsic clearance upto 30 mins by HPLC-MS/MS analysis; format: ADME; settings: microsomes, 0.5 h
# [4] = Microsomal stability in CD-1 mouse liver microsome measured assessed as half life upto 30 mins by HPLC-MS/MS analysis; format: ADME; settings: liver microsomes
# [5] = Microsomal stability in human liver microsome measured assessed as intrinsic clearance upto 30 mins by HPLC-MS/MS analysis; format: ADME; settings: microsomes, 0.5 h
# [6] = Microsomal stability in human liver microsome measured assessed as half life upto 30 mins by HPLC-MS/MS analysis; format: ADME; settings: liver microsomes
# [7] = Cmax in BALB/c mouse at 50 mg/kg, po measured at 15 to 1440 mins by LC-MS/MS analysis; format: ADME, organism-based; set-up: time lower 15 min, dose 50 mg/kg, time upper 1440 min, route po; settings: in vivo
# [8] = Tmax in BALB/c mouse at 50 mg/kg, po measured at 15 to 1440 mins by LC-MS/MS analysis; format: ADME, organism-based; settings: in vivo, time 15-1440 min
# [9] = AUC (0 to t) in BALB/c mouse at 50 mg/kg, po measured at 15 to 1440 mins by LC-MS/MS analysis; format: ADME, organism-based; set-up: dose 50 mg/kg, time upper 1440 min, time lower 15 min, route po; settings: in vivo
# [10] = AUC in BALB/c mouse at 50 mg/kg, po measured at 15 to 1440 mins by LC-MS/MS analysis; format: ADME, organism-based; set-up: time upper 1440 min, dose 50 mg/kg, time lower 15 min, route po; settings: in vivo
# [11] = Toxicity in BALB/c mouse assessed as reduction in body weight loss at 50 mg/kg, po bid; format: organism-based; set-up: scale not given: the % may be the effect or the level left; settings: in vivo
# [12] = tested on: Trypanosoma cruzi; assay: In vivo antitrypanosomal activity against Trypanosoma cruzi infected in BALB/c mouse model assessed as reduction in parasitemia at 30 mg/kg, po preincubated for 4 days post infection followed by compound treatment and measured after 5 to 10 days; format: functional; set-up: scale not given: the % may be the effect or the level left; settings: time 5-10 day
# [13] = tested on: Trypanosoma cruzi; assay: Antitrypanosomal activity against Trypanosoma cruzi Tulahuen strain trypomastigotes infected in rat H9c2 cells; format: functional, organism-based
# [14] = tested on: Trypanosoma cruzi; assay: Antitrypanosomal activity against Trypanosoma cruzi Tulahuen amastigotes infected in monkey LLC-MK2 cells assessed as reduction in amastigotes per 100 cells by cell counting analysis; format: functional, organism-based
# [15] = Cytotoxicity against monkey LLC-MK2 cells assessed as reduction in cell viability; format: toxicity, cell-based; settings: rhesus monkey (Macaca mulatta)
# [16] = target: Sterol 14-alpha demethylase (Trypanosoma cruzi (strain CL Brener), UniProt Q7Z1V1); assay: Inhibition of Trypanosoma cruzi CYP51
# Sequence of Sterol 14-alpha demethylase (Q7Z1V1 whole entry): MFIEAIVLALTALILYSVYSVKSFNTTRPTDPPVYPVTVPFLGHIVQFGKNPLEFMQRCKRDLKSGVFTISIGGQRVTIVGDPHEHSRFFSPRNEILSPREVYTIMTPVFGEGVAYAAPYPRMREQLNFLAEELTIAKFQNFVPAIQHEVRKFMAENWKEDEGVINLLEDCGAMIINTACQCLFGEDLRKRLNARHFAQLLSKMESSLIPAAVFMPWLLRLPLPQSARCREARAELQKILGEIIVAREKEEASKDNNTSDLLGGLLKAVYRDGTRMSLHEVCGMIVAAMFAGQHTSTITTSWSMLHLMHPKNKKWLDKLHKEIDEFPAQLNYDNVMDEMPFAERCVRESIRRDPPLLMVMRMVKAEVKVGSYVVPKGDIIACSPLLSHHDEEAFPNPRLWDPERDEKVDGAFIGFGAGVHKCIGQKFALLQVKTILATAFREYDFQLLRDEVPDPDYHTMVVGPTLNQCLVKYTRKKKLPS
# [17] = tested on: Trypanosoma cruzi; assay: Antitrypanosomal activity against Trypanosoma cruzi Tulahuen amastigotes infected in monkey LLC-MK2 cells assessed reduction in amastigotes per 100 cells by measuring rate of kill time by counting analysis; format: functional
# [18] = Cytotoxicity against mouse NIH3T3 cells assessed as reduction in cell viability; format: toxicity, cell-based
# [19] = tested on: HepG2; assay: Cytotoxicity against human HepG2 cells assessed as reduction in cell viability; format: functional, cell-based
# [20] = Equilibrium solubility of the compound in FaSSIF at pH 6.5; format: physicochemical
# [21] = target: Voltage-gated inwardly rectifying potassium channel KCNH2 (Homo sapiens, UniProt Q12809); assay: Inhibition of hERG cardiac ion channel; format: toxicity
# Sequence of Voltage-gated inwardly rectifying potassium channel KCNH2 (Q12809 whole entry): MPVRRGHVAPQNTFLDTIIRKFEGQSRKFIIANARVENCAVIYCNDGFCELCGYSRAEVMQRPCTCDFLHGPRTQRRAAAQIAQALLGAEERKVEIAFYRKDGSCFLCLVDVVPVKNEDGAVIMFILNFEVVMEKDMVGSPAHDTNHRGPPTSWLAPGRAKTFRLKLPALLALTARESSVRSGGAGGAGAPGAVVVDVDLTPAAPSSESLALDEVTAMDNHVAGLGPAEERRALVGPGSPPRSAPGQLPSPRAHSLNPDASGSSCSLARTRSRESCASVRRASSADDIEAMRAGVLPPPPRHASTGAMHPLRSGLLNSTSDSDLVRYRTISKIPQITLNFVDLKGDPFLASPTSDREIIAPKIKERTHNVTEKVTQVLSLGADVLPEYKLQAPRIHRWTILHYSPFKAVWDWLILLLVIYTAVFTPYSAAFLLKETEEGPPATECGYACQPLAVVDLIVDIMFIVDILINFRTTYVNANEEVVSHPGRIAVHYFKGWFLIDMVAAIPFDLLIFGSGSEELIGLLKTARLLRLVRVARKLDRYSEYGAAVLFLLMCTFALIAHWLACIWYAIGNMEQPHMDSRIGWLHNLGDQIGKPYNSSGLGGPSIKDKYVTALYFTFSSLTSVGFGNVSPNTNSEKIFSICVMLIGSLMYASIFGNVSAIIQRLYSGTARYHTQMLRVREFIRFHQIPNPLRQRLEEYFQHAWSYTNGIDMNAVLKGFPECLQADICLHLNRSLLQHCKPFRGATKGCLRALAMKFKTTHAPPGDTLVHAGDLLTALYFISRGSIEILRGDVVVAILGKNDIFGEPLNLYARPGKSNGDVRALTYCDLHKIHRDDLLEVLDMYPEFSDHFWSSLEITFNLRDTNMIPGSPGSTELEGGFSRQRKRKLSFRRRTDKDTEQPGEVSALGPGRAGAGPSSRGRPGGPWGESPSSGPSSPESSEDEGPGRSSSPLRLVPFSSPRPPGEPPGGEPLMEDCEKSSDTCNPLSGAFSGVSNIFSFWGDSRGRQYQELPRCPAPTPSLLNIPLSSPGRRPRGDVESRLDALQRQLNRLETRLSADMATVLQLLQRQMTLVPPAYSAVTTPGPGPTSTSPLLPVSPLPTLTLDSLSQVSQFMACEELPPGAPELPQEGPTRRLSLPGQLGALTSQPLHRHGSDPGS
SMILES,IC50 at 72 h [1] [µM],IC50 [2] [µM],other results
O=C(Cn1ccnc1[N+](=O)[O-])NCc1ccccc1 [BENZNIDAZOLE],31.6,1.26,
N#Cc1cc(N2CCCC2=O)ccc1Sc1ccccc1C(=O)O,> 50.1,0.794,
O=C1CCCN1c1ccc(Sc2ccccc2O)c(C(F)(F)F)c1,15.8,2,
O=C1CCCN1c1ccc(Sc2ccccc2CO)c(C(F)(F)F)c1,> 50.1,0.0316,CLH [3]: 31.49 mL/min/g; half-life [4]: 4.78 min; CLH [5]: 11.51 mL/min/g; half-life [6]: 2.11 min; Cmax [7]: 301 ng/mL; Tmax [8]: 30 min; AUC(0-t) [9]: 485 ng·h/mL; AUC [10]: 530 ng·h/mL; Activity [11]: 16%; Activity [12]: 70%
O=C1CCCN1c1ccc(S(=O)(=O)c2ccccc2CO)c(C(F)(F)F)c1,> 50.1,0.251,CLH [3]: 20 mL/min/g; half-life [4]: 4.39 min; CLH [5]: 12.5 mL/min/g; half-life [6]: 3.32 min; Cmax [7]: 175 ng/mL; Tmax [8]: 30 min; AUC(0-t) [9]: 208 ng·h/mL
CCc1ccccc1Sc1ccc(N2CCCC2=O)cc1C(F)(F)F,15.8,20,
COc1ccc(CO)c(Sc2ccc(N3CCCC3=O)cc2C(F)(F)F)c1,> 50.1,15.8,
Cc1cc(N2CCCC2=O)ccc1Sc1ccccc1CO,> 50.1,6.31,
COCc1ccccc1Sc1ccc(N2CCCC2=O)cc1C#N,31.6,6.31,
Cc1cccc(Sc2ccc(N3CCCC3=O)cc2C(F)(F)F)c1CO,> 50.1,0.316,
N#Cc1cc(N2CCCC2=O)ccc1Oc1ccccc1CO,> 50.1,2.51,
O=C1CCCN1c1ccc(Sc2ccccc2CO)cc1C(F)(F)F,> 50.1,7.94,
O=C1CCCN1c1ccc(Sc2ccccc2CO)c(OC(F)(F)F)c1,> 50.1,2.51,
N#Cc1cc(N2CCCC2=O)ccc1Sc1cccc(CO)c1,> 50.1,31.6,
O=C1CCCN1c1ccc(Sc2ccc(Cl)cc2CO)c(C(F)(F)F)c1,31.6,0.158,
CN(C)C(=O)c1cc(N2CCCC2=O)ccc1Sc1ccccc1CO,> 50.1,50.1,
O=C1CCCN1c1ccc(Sc2ccccc2CO)c(Cl)c1,> 50.1,0.2,
O=C1CCCN1c1ccc(Sc2ccc(F)cc2CO)c(C(F)(F)F)c1,> 50.1,,

SMILES,IC50 at 72 h [1] [µM],IC50 [2] [µM],other results
Cc1ccc(CO)c(Sc2ccc(N3CCCC3=O)cc2C(F)(F)F)c1,> 50.1,15.8,
O=C(O)c1cc(N2CCCC2=O)ccc1Sc1ccccc1CO,> 50.1,> 50.1,
O=C1CCCN1c1ccc(Sc2ccccc2CO)c(F)c1,> 50.1,5.01,
O=C1CCCN1c1ccc(Sc2cccc(Cl)c2CO)c(C(F)(F)F)c1,> 50.1,0.316,
Cc1ccc(Sc2ccc(N3CCCC3=O)cc2C(F)(F)F)c(CO)c1,> 50.1,6.31,
COc1cccc(CO)c1Sc1ccc(N2CCCC2=O)cc1C(F)(F)F,> 50.1,20,
COc1cccc(Sc2ccc(N3CCCC3=O)cc2C(F)(F)F)c1CO,> 50.1,25.1,
O=C1CCCN1c1ccc(Sc2ccccc2CO)cc1,> 50.1,> 50.1,
O=C1CCCN1c1ccc(Sc2ccccc2CO)nc1,> 50.1,12.6,
O=C1CCCN1c1ccc(Sc2cccc(F)c2CO)c(C(F)(F)F)c1,> 50.1,0.02,
O=C1CCCN1c1ccc(Sc2c(Cl)cccc2CO)c(C(F)(F)F)c1,> 50.1,1.26,
N#Cc1cc(N2CCCC2=O)ccc1Sc1ccccc1CO,0.447,,CLH [3]: 1.36 mL/min/g; IC50 [13]: 0.24 µM; IC50 [14]: 0.251 µM; IC50 [15]: 0.447 µM; Activity [2]: inactive; IC50 [16]: > 10 µM; Time [17]: >24 h; IC50 [18]: > 50.1 µM; IC50 [19]: > 100 µM; solubility thermodynamic [20]: 56 µg/mL; half-life [4]: 54 min; CLH [5]: 4.62 mL/min/g; half-life [6]: 15 min; IC50 [21]: > 50.1 µM
O=C1CCCN1c1ccc(Sc2cc(F)ccc2CO)c(C(F)(F)F)c1,> 50.1,0.126,
O=C1CCCN1c1ccc(Sc2ncccc2CO)c(C(F)(F)F)c1,> 50.1,20,
Cc1cccc(CO)c1Sc1ccc(N2CCCC2=O)cc1C(F)(F)F,> 50.1,0.794,
O=C1CCCN1c1ccc(Sc2cc(Cl)ccc2CO)c(C(F)(F)F)c1,39.8,6.31,
COC(=O)c1cc(N2CCCC2=O)ccc1Sc1ccccc1CO,> 50.1,31.6,
COc1ccc(Sc2ccc(N3CCCC3=O)cc2C(F)(F)F)c(CO)c1,> 50.1,1,
